Reference: patent US7928089B2, “Mucoactive agents for treating a pulmonary disease” (Vectura Limited, priority 2003, dated 2011)

Test: Stage 1 heparin dose-response: CF sputum viscoelasticity by magnetic microrheometry
Parameters: species or system human
Settings: 30 minutes at 37°, 10 rad/s, 10 CF sputum samples; FIG. 3; NAL 309 mcg/mL
Description: An experimental programme was conducted to test the mucolytic activity of selected mucoactive agents. The primary objective of this initial protocol is to determine the mucolytic activity (capacity to reduce the viscosity and elasticity and thereby affect clearability) of heparin in cystic fibrosis sputum at concentrations of potential clinical relevance. This constitutes the Stage 1 experiment, below. The secondary objective is to compare heparin with other heparin fractions in a screening test for activity, incorporated in the Stage 2 experiment. […]
The magnetic microrheometer was described by King (King M (1988) “Magnetic microtheometer” Methods in Bronchial Mucology, pp. 73-83.). This instrument is used to measure the bulk viscosity and elasticity of microliter quantities of mucus. […]
When interpreting the results of the studies discussed herein, the primary variable of interest is the decrease in mucus viscoelasticity, expressed as delta log G* (corrected for vehicle treatment). […]
From each of 10 CF sputum samples, up to 6 aliquots of approximately 10-15 mg each were incubated for 30 minutes at 37° with either 0.9% NaCl or with one of the concentrations of heparin, or with N-acetylcysteine L-lysinate (NAL) (309 mcg/mL). Prior to incubation and following it, sputum viscoelasticity at 10 rad/s was determined by magnetic microrheometry. […]

With N-acetylcysteine L-lysinate [NAL] the “mucolytic effect (fractional decrease in G*)” value was “effective at a lower concentration compared to heparin”.
